Laboratory results reported in patent US12358918B2, “Aryl hydrocarbon receptor (AHR) activator compounds as cancer therapeutics” (THE BROAD INSTITUTE, INC., priority 2018, dated 2025).

Key:
[1] = target: recombinant human Adenosine A2A (FAST-002C) receptor (Homo sapiens, UniProt P29274); experiment: cAMP HTRF assay, Adenosine A2A receptor, antagonist mode; format: cell-based
[2] = target: T1, recombinant human Adenosine A3 (FAST-004C) receptor (Homo sapiens, UniProt P0DMS8); experiment: cAMP HTRF assay, Adenosine A3 receptor, antagonist mode; format: cell-based
T1 sequence (P0DMS8 1-318): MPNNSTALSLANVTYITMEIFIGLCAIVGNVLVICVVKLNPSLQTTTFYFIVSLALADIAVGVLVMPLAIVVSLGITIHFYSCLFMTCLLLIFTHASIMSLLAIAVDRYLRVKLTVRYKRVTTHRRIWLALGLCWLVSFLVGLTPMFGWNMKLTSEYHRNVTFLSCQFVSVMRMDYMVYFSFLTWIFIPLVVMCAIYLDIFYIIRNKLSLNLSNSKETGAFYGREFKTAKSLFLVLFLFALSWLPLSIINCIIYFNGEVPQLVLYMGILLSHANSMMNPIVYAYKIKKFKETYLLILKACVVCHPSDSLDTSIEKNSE

[3] = system: MDA-MB-231 breast cancer cell lines; experiment: cytotoxicity, control cells vs cells overexpressing CYP1A1; format: cell-based
Description: The dependence of each compound's cytotoxic effects upon CYP1A1 was also examined, via screening of MDA-MB-231 breast cancer cell lines for cytotoxic response. The CYP1A1-dependence of the cytotoxic response of to each tested compound was specifically determined by comparing the cytotoxicity of each compound administered to control cells with that of the compound administered to corresponding cells that overexpressed CYP1A1. […]

[4] = system: Twelve different breast cancer cell lines; experiment: adenosine receptor antagonists and agonists dosed on twelve breast cancer cell lines; format: cell-based; details: 32 adenosine receptor antagonists/agonists compared; FIG. 6B
[5] = system: MDA-MB-468 breast cancer cells; experiment: Western immunoblot of treated cells over 24 hours; format: cell-based; details: FIG. 18
Method: Adherent cells were washed once with cold 1×PBS (Corning #01018002) and lysed with RIPA buffer (Sigma #R0278) supplemented by protease and phosphatase inhibitors (Sigma). Protein content was quantified using the DC Protein Assay (BioRad #5000111). Samples were reduced with (loading buffer) and boiled at 95° C. before being resolved by SDS gel electrophoresis on 4-20% Tris/glycine gels (Invitrogen). Proteins were transferred using the IBlot2 (Thermo #IB21001) onto the iBlot™ 2 nitrocellulose Transfer Stacks (Thermo #IB23001). The membranes were then blocked in Odyssey Blocking Buffer (Li-COR #927-40000) for one hour, and then probed overnight with primary antibodies diluted in blocking buffer. The following day, membranes were washed 3×5 mins with 1×TBST and then probed with LiCOR Infrared secondary antibodies for 1 hour at room temperature. Membranes were washed an additional 3×5 mins in 1×TBST and then imaged using the LiCOR Imager. […]

[6] = system: MDA-MB-468 and ZR51 breast cancer and JHH7 liver cancer cell lines
[7] = system: ZR-75-1 and MDA-MB-468 cells harboring an AGR2 knockout; details: CRISPR-Cas9 AGR2 knockout; FIGS. 10A-10D
[8] = system: MDA-MB-468 and ZR-75-1 cell lines; details: AHR sg3 / AHR sg4 knockout vs GFP sg1 or parental Cas9; FIGS. 13A and 13B
[9] = target: T2, recombinant human Adenosine A1 (FAST-001C) receptor (Homo sapiens, UniProt P30542); experiment: cAMP HTRF assay, Adenosine A1 receptor, antagonist mode; set-up: inhibition: dose or concentration left out as unconfirmed
T2 sequence (P30542 1-326): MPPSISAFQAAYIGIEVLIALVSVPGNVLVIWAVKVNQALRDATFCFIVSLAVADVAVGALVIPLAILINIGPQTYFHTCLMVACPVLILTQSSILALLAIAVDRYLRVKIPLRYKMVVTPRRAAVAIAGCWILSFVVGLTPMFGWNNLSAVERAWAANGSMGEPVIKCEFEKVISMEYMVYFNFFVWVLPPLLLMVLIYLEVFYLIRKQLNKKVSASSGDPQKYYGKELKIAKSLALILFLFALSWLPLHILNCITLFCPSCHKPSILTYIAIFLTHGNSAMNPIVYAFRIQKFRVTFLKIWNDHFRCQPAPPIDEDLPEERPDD

[10] = target: T3, recombinant human Adenosine A2B (FAST-003C) receptor (Homo sapiens, UniProt P29275); experiment: cAMP HTRF assay, Adenosine A2B receptor, antagonist mode; set-up: inhibition: dose or concentration left out as unconfirmed
T3 sequence (P29275 1-332): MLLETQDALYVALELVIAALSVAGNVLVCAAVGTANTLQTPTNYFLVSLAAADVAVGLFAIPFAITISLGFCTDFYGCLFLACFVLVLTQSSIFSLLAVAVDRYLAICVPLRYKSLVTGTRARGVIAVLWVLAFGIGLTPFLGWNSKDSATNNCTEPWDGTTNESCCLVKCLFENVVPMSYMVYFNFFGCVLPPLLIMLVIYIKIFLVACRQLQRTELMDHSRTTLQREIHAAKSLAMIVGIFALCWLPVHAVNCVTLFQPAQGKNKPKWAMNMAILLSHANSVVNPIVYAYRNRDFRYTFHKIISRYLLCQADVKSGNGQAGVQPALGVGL

[11] = HEK293, read-out: % Inhibition Average at maximal concentration
[12] = antagonist mode dose-response fit
[13] = CHO-K1, read-out: % Inhibition Average at maximal concentration

Chain of recombinant human Adenosine A2A (FAST-002C) receptor (P29274 whole entry): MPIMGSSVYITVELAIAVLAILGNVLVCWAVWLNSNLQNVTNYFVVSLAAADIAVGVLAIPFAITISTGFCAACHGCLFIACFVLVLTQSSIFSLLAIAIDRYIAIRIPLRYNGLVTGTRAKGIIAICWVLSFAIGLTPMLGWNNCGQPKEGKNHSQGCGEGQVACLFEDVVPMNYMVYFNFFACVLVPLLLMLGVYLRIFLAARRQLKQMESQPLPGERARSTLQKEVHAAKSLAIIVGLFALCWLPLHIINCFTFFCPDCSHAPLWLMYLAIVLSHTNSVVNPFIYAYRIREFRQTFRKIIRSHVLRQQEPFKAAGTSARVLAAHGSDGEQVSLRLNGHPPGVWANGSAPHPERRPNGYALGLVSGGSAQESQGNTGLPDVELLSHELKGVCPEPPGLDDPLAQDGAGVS

In the case of `Nc1nc2ccc(Cl)cc2c2nc(-c3ccco3)nn12` [CGS-15943, reference compound], the inhibition at 10 µM [1, 11] is reported as 125%, the “Hill Coefficient” value [1, 12] is reported as 1.25 and the inhibition at 10 µM [2, 13] is reported as 68.9%. For the same compound, the “Hill Coefficient” value [2, 12] was 1.66, the IC50 ([2]; antagonist mode, CHO-K1, reference agonist IB-MECA) was 2090 nM and the “CYP1A1-dependence of the cytotoxic response” value [3] was “CYP1A1-dependent cytotoxic”. For the same compound, the “cytotoxicity to breast cancer cell lines” value [4] was “cytotoxic”, the CYP1A1 expression ([5]; 24 hour time course) was “induced CYP1A1 expression” and the FOXA1 levels ([5]; 24 hour time course) was “maintenance of FOXA1 levels”. The “DNA double stranded breaks (pH2A.X) and PARP cleavage” value ([5]; within 24 hours) was “induced DNA double stranded breaks and PARP cleavage”, the “AHR-dependence of the cytotoxic response” value [6] was “dependence upon AHR” and the “rescue of cytotoxicity by AGR2 knockout” value [7] was “not rescued by AGR2 knockout”. For the same compound, the “dependence of cytotoxic activity on AHR” value [8] was “required intact AHR expression”, the inhibition [9, 13] was 106% and the “Hill Coefficient” value [9, 12] was 0.92. The inhibition [10, 11] was 120% and the “Hill Coefficient” value [10, 12] was 1.75.
